Laboratory results published in patent US11390629B2, “1,5-disubstituted 1,2,3-triazoles are inhibitors of Rac/Cdc42 GTPases” (UNIVERSITY OF PUERTO RICO, priority 2016, dated 2022).
“Also recorded” adds a separate entry of the source. Where two headings read alike, the source gives them in different places.

Experiments:
Rho = Rho activation pulldown (Rhotekin), GFP-HER2-BM cells; settings: 24 h, listed as MBQ-167
Cdc42 [1] = target: T1, Cdc42 (Homo sapiens, UniProt P60953); test: Cdc42 activation pulldown (p21-binding domain of PAK) and western blot, MDA-MB-231 cells; format: cell-based; set-up: endogenous in cells; host or cells: MDA-MB-231; settings: 24 h, detached cells
GFP-MDA-MB-231 cells = test: Annexin V-Cy3-18 staining; format: cell-based, human; settings: 250 or 500 nM, 6 h
Method: FIG. 14. Annexin V staining in response to MBQ-167. GFP-MDA-MB-231 cells growing on coverslips were treated with vehicle or MBQ-167 at 250 or 500 nM for 6 h; Cells were fixed in formaldehyde and stained with Annexin V-Cy3-18; Representative fluorescence micrographs are shown; Arrows indicate red fluorescent Annexin V staining at the membranes of apoptotic cells.
Apoptotic cells were detected by fluorescence microscopy of Annexin V-Cy3-18 stained cells as per manufacturer's instructions (Sigma-Aldrich, St Louis, Mo., USA). Briefly, GFP-MDA-MB-231 cells grown on coverslips were treated with vehicle, or 250 or 500 nM MBQ-167 for 6 h and stained with Annexin V-Cy3-18 in binding buffer (10 mM HEPES/NaOH, pH 7.5, 0.14 M NaCl, 2.5 mM CaCl2) for 15 min at room temperature. Coverslips were washed in binding buffer and fixed with 3.7% paraformaldehyde prior to fluorescence microscopy. Images were digitally acquired from an Olympus inverted fluorescence microscope.

[2] = test system: MCF10A mammary epithelial cells; test: Cell viability assay (CellTiter 96 / MTT), MCF10A; settings: 120 h
PAK = test: Western blot of PAK activity, MCF-7 cells; format: cell-based, human; settings: MCF-7, 250 nM, 24 h; listed as MBQ-167
MDA-MB-231 cells = test: Cell viability assay (CellTiter 96 / MTT), MDA-MB-231
[3] = as above; settings: human
[4] = test system: c-Myc, Bcl-XL, Bcl-2, BAD; test: Expression of oncogenes and survival proteins, MDA-MB-435 cells; format: cell-based, human; settings: 150 nM, 24 h
From the text: Studies from a number of cancer types have shown that Rac/Cdc42/PAK signaling can induce cell survival and evade apoptosis. Therefore, the decreased cell viability and increased apoptosis by MBQ-167, at concentrations that inhibit both Rac and Cdc42, is predicted to be due to dual inhibition of Rac and Cdc42 function.

Cdc42 [5] = target: T1, Cdc42; test: Cdc42 activity (Table 1A); format: cell-based; settings: class by % inhibition at stated concentration
Bcl-2, Bcl-xL, Mcl-1 = test: Western blot of pro-survival proteins, MDA-MB-231; settings: 250 nM, 24 h
[6] = Liver enzyme assays (ALP, ALT) after necropsy; format: in vivo, nude mice; settings: listed as MBQ-167
From the text: . Mammary fatpad tumors were established in nude mice by inoculating 5×10^5 GFP-HER2-BM cells; […]; FIG. 6B, Representative fluorescence micrographs of lungs, spleens, and kidneys from vehicle or MBQ-167 treated mice following necropsy; […]; Following necropsy, livers were harvested, lysed and subjected to FIG. 6D, ALP activity or FIG. 6E, ALT activity assays; N=4, error bars represent ±S.E.M.
The mice from this study were also examined once a week for potential toxicity. […]. At necropsy, livers were harvested, lysed and subjected to liver enzyme assays as a test for potential toxic effects. […]. Frozen stored livers were thawed and homogenized to measure alkaline phosphatase (ALP) and alanine transaminase (ALT) activities using colorimetric assay kits from Abeam and Cayman Chemicals respectively, as per manufacturer's instructions.

[7] = Toxicity observation: mouse weight and phenotype; format: in vivo, mice; settings: 65-day study, 1 and 10 mg/kg BW; listed as MBQ-167
From the text: The mice from this study were also examined once a week for potential toxicity. […] At necropsy, livers were harvested, lysed and subjected to liver enzyme assays as a test for potential toxic effects.

Cdc42 [8] = target: T1, Cdc42; test: G-LISA Cdc42 activity, GFP-HER2-BM cells; format: cell-based; set-up: endogenous in cells; host or cells: MDA-MB-231; settings: 250 nM, 24 h
[9] = test system: GFP-HER2-BM, MDA-MB-468, Hs578t, Mia-PaCa-2, SKOV3, AGS, NCI-N87, SH-SY5Y cells; test: Bright field cell phenotype, other mesenchymal cancer cell lines; format: cell-based, human; settings: 250 or 500 nM, 24 h
Method: FIG. 9. Human cancer cell phenotype following MBQ-167 treatment. Triple negative breast cancer (MDA-MB-468), aggressive pancreatic (Mia PaCa-2), ovarian (SKVO3), gastric carcinoma (AGS and NCI-N87) cell lines and a neuroblastoma (SH-SY5Y) cell line were treated with 0, 250 or 500 nM MBQ-167 for 24 h; Representative bright field images are shown for each cell line.
Human breast cancer cells were visualized by bright field microscopy following MBQ-167 treatment. At ≥100 nM, starting at six hours, MBQ-167 induced a loss of polarity in metastatic breast cancer cells. […] On the other hand, non-cancer mammary epithelial MCF10A and epithelial breast cancer MCF-7 cells were resistant to MBQ-167 and remained polarized and attached to each other and the substratum (FIG. 2A).

T1 sequence (P60953 whole entry, the tested form may be a part): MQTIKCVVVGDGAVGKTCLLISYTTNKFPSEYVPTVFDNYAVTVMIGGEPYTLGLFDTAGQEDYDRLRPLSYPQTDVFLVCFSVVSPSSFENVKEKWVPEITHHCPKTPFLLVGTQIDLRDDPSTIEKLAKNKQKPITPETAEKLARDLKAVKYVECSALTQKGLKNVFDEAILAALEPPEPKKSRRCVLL

For CCn1c2ccccc2c2cc(-n3nncc3-c3ccccc3)ccc21 [I-1, 9-ethyl-3-(5-phenyl-1H-1,2,3-triazol-1-yl)-9H-carbazole], the “effect on Rho activity” value (Rho) was “did not affect; also recorded: does not affect”, the “inhibition of Cdc42 activity” value (Cdc42 [1]; 250 nM, listed as MBQ-167, […]) was 85% and the inhibition at […] (Cdc42 [1]; MDA-MB-231, 250 nM) was 78%. The “Annexin V staining” value (GFP-MDA-MB-231 cells) was “increased Annexin V staining”, the GI50 ([2]; Homo sapiens, MCF-10A) was 350 nM and the “effect on viability of MCF7 and MCF-10A cells” value ([2]; at the GI50 concentrations of the metastatic cells) was “does not affect the viability”. The “Rac Activity (Active Rac/Total Rac)” value (Rac; 250 nM, 24 h, MCF-7 cells, vehicle = 1.0) was 1.075 ± 0.3, the “effect on Rac activity” value (Rac; MCF-7, 250 nM, listed as MBQ-167) was “insensitive; also recorded: does not affect” and the “effect on PAK activity” value (PAK) was “did not affect; also recorded: does not inhibit”. The cell death (MDA-MB-231 cells; 1000 nM, 120 h, all cell types (MDA-MB-231, GFP-HER2-BM, MCF10A)) was about 100%, the GI50 (MDA-MB-231 cells; 120 h, listed as MBQ-167) was 0.11 µM and the GI50 (MDA-MB-231 cells; Homo sapiens, MDA-MB-231, 120 h, 120 h) was about 0.13 µM. It also gave a GI50 (MDA-MB-231 cells; Homo sapiens, MDA-MB-231, read-out: GI50 (μM) MDA-MB-231, MDA-MB-231) of 0.128 µM, a viability at 24 h, 5 µM ([3]; MDA-MB-231, GFP-HER2-BM, MCF-7 and MCF-10 cells) of about 75% and a viability at 24 h, 0.3 µM ([3]; MDA-MB-231 cells) of 100%. The “expression of c-Myc, Bcl-XL, Bcl-2” value [4] was “reduced expression”, the “pro-apoptotic protein BAD” value [4] was “concomitant increase” and the Cdc42 activity (Cdc42 [5]) was “A (>50% inhibition at 250 nM)”. The “expression of pro-survival proteins Bcl-2, Bcl-xL, Mcl-1” value (Bcl-2, Bcl-xL, Mcl-1) was “significant decrease”, the “liver ALT activity” value ([6]; 10 mg/kg BW) was “significantly increased; also recorded: increases” and the “liver ALP activity” value ([6]; 1 and 10 mg/kg BW) was “does not significantly affect”. The “weight loss or phenotypic changes” value [7] was “did not show any significant weight loss or phenotypic changes; also recorded: does not exert toxic effects”, the “effect on Cdc42 activity” value (Cdc42 [8]) was “inhibits” and the “cell rounding and detachment phenotype” value [9] was “induced this phenotype”.
